Laboratory results taken from publication PMC10817917, “Alkyl deoxyglycoside-polymyxin combinations against critical priority carbapenem-resistant gram-negative bacteria” (Scientific Reports, 2024).
Read-outs that look alike come from different tables or passages of the source.

Columns and labels:
E. coli ATCC 25922 = test: Broth microdilution MIC/MBC, glycosides with or without polymyxins; format: cell-based, Escherichia coli; conditions: for MIC: Escherichia coli, ATCC25922
Caco-2 cells = test: Resazurin cell viability assay (cytotoxicity); format: cell-based, human; conditions: read-out: IC50
How it was run: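 HEK-293T and Caco-2 cells (1.5 × 10^4/well, RPMI 1640 with 10% FBS) exposed 72 h at 37 °C to glycosides at final 100 to 10 µM, alone or with PMB or colistin at final 0.5, 0.25 or 0.125 µg/mL; max DMSO 0.33%. Resazurin added 4 h, read 570/600 nm; IC50 from dose-response fits, mean ± SD of three replicates.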

K. pneumoniae CQ1942 = test: Broth microdilution MIC, glycosides with or without polymyxins; format: cell-based, Klebsiella pneumoniae; conditions: for MIC: Klebsiella pneumoniae, CQ1942
E. cloacae CQ1941 = test: Broth microdilution MIC/MBC, glycosides with or without polymyxins; format: cell-based; conditions: for MIC: Enterobacter cloacae, CQ1941
[1] = alone, read-out: MICA (MIC of each compound individually)
[2] = combination with the lowest FICI
[3] = compound + colistin, lowest FICI

`CCCCCCCCCCCCO[C@H]1O[C@H](C)C[C@H](O)[C@H]1O` [Compound 1, dodecyl 4,6-dideoxy-α/β-D-xylo-hexopyranoside] was tested, and the “MIC of colistin in combination with the compound” value (from here on “MIC … with the compound”) (E. coli ATCC 25922; Cpd conc. 0.4 μg/mL, strain A) was greater than 0.5 µg/mL, the “MIC … with the compound” value (E. coli ATCC 25922; Cpd conc. 0.8 μg/mL, strain A) was greater than 0.5 µg/mL and the “MIC … with the compound” value (E. coli ATCC 25922; Cpd conc. 3.125 μg/mL, strain A) was 0.25 µg/mL. For the same compound, the “MIC … with the compound” value (E. coli ATCC 25922; Cpd conc. 6.25 μg/mL, strain A) was 0.25 µg/mL, the “MIC … with the compound” value (E. coli ATCC 25922; Cpd conc. 12.5 μg/mL, strain A) was 0.25 µg/mL and the “MIC … with the compound” value (E. coli ATCC 25922; Cpd conc. […], strain A) was greater than 0.5 µg/mL. The MIC (E. coli ATCC 25922; agent alone, no adjuvant (polymyxin conc. 0), strain A, read-out: MIC) was greater than 100 µg/mL, the MIC (E. coli ATCC 25922; [1]) was greater than 100 µg/mL and the “MIC of compound in combination with PMB” value (E. coli ATCC 25922; PMB 0.25 μg/mL, strain A) was greater than 100 µg/mL. The “MIC of compound in combination with PMB” value (E. coli ATCC 25922; PMB 0.5 μg/mL, strain A) was 3.1 µg/mL, the “MIC of compound in combination with colistin” value (E. coli ATCC 25922; colistin 0.06 μg/mL, strain A) was greater than 100 µg/mL and the “MIC of compound in combination with colistin” value (E. coli ATCC 25922; colistin 0.125 μg/mL, strain A) was greater than 100 µg/mL. The “MIC of compound in combination with colistin” value (E. coli ATCC 25922; colistin 0.25 μg/mL, strain A) was 3.1 µg/mL, the “MIC of compound in combination with colistin” value (E. coli ATCC 25922; colistin 0.5 μg/mL, strain A) was 3.1 µg/mL and the “MICA(A + B) (MIC of compound in combination with colistin)” value (E. coli ATCC 25922; [2]) was 3.125 µg/mL. The “MICB(A + B) (MIC of colistin in combination with compound)” value (“MICB(A + B)” below) (E. coli ATCC 25922; [2]) was 0.25 µg/mL, the “Interpretation (of FICI)” value (E. coli ATCC 25922; compound + colistin) was “Additive (from 0.5 to 1.0 were additive)” and the FICI (E. coli ATCC 25922; [3]) was 0.52. The IC50 (Caco-2 cells; Homo sapiens, Caco-2, 72 h, Colistin 0.25 μg/mL) was 54.7 ± 1.04 µM, the IC50 (Caco-2 cells; Homo sapiens, Caco-2, 72 h, Colistin 0.5 μg/mL) was 52.5 ± 2.28 µM and the IC50 (Caco-2 cells; Homo sapiens, Caco-2, 72 h, No polymyxin) was 54.2 ± 2.77 µM. It also gave an IC50 (Caco-2 cells; Homo sapiens, Caco-2, 72 h, PMB 0.25 μg/mL) of 50.5 ± 0.15 µM, an IC50 (Caco-2 cells; Homo sapiens, Caco-2, 72 h, PMB 0.5 μg/mL) of 52.2 ± 1.77 µM and an IC50 (Caco-2 cells; Homo sapiens, Caco-2, 72 h, tested alone (no polymyxin adjuvant)) of 17.2 µg/mL. For the same compound, the IC50 (Caco-2 cells; No polymyxin, 72 h) was 54.3 µM, the “MIC … with the compound” value (K. pneumoniae CQ1942; Cpd conc. 0.4 μg/mL, strain E) was greater than 0.5 µg/mL and the “MIC … with the compound” value (K. pneumoniae CQ1942; Cpd conc. 0.8 μg/mL, strain E) was 0.5 µg/mL. For the same compound, the “MIC … with the compound” value (K. pneumoniae CQ1942; Cpd conc. 3.125 μg/mL, strain E) was 0.25 µg/mL, the “MIC … with the compound” value (K. pneumoniae CQ1942; Cpd conc. 6.25 μg/mL, strain E) was 0.25 µg/mL and the “MIC … with the compound” value (K. pneumoniae CQ1942; Cpd conc. 12.5 μg/mL, strain E) was 0.25 µg/mL. For the same compound, the “MIC … with the compound” value (K. pneumoniae CQ1942; Cpd conc. […], strain E) was 0.5 µg/mL, the MIC (K. pneumoniae CQ1942; agent alone, no adjuvant (polymyxin conc. 0), strain E, read-out: MIC) was greater than 100 µg/mL and the MIC (K. pneumoniae CQ1942; [1]) was greater than 100 µg/mL. The “MIC of compound in combination with PMB” value (K. pneumoniae CQ1942; PMB 0.25 μg/mL, strain E) was greater than 100 µg/mL, the “MIC of compound in combination with PMB” value (K. pneumoniae CQ1942; PMB 0.5 μg/mL, strain E) was 1.6 µg/mL and the “MIC of compound in combination with colistin” value (K. pneumoniae CQ1942; colistin 0.06 μg/mL, strain E) was greater than 100 µg/mL. For the same compound, the “MIC of compound in combination with colistin” value (K. pneumoniae CQ1942; colistin 0.125 μg/mL, strain E) was greater than 100 µg/mL, the “MIC of compound in combination with colistin” value (K. pneumoniae CQ1942; colistin 0.25 μg/mL, strain E) was 3.1 µg/mL and the “MIC of compound in combination with colistin” value (K. pneumoniae CQ1942; colistin 0.5 μg/mL, strain E) was 0.8 µg/mL. For the same compound, the “MICA(A + B) (MIC of compound in combination with colistin)” value (K. pneumoniae CQ1942; [2]) was 3.125 µg/mL, the “MICB(A + B)” value (K. pneumoniae CQ1942; [2]) was 0.25 µg/mL and the “Interpretation (of FICI)” value (K. pneumoniae CQ1942; compound + colistin) was “Additive (from 0.5 to 1.0 were additive)”. For the same compound, the FICI (K. pneumoniae CQ1942; [3]) was 0.52, the “MIC … with the compound” value (E. cloacae CQ1941; Cpd conc. 0.4 μg/mL, strain D) was greater than 0.5 µg/mL and the “MIC … with the compound” value (E. cloacae CQ1941; Cpd conc. 0.8 μg/mL, strain D) was 0.5 µg/mL. The “MIC … with the compound” value (E. cloacae CQ1941; Cpd conc. 3.125 μg/mL, strain D) was 0.25 µg/mL, the “MIC … with the compound” value (E. cloacae CQ1941; Cpd conc. 6.25 μg/mL, strain D) was 0.25 µg/mL and the “MIC … with the compound” value (E. cloacae CQ1941; Cpd conc. 12.5 μg/mL, strain D) was 0.25 µg/mL. The “MIC … with the compound” value (E. cloacae CQ1941; Cpd conc. […], strain D) was 0.25 µg/mL, the MIC (E. cloacae CQ1941; agent alone, no adjuvant (polymyxin conc. 0), strain D, read-out: MIC) was greater than 100 µg/mL and the MIC (E. cloacae CQ1941; [1]) was greater than 100 µg/mL. For the same compound, the “MIC of compound in combination with PMB” value (E. cloacae CQ1941; PMB 0.25 μg/mL, strain D) was greater than 100 µg/mL, the “MIC of compound in combination with PMB” value (E. cloacae CQ1941; PMB 0.5 μg/mL, strain D) was 1.6 µg/mL and the “MIC of compound in combination with colistin” value (E. cloacae CQ1941; colistin 0.06 μg/mL, strain D) was greater than 100 µg/mL. The “MIC of compound in combination with colistin” value (E. cloacae CQ1941; colistin 0.125 μg/mL, strain D) was greater than 100 µg/mL, the “MIC of compound in combination with colistin” value (E. cloacae CQ1941; colistin 0.25 μg/mL, strain D) was 1.6 µg/mL and the “MIC of compound in combination with colistin” value (E. cloacae CQ1941; colistin 0.5 μg/mL, strain D) was 0.8 µg/mL. The “MICB(A + B)” value (E. cloacae CQ1941; [2]) was 0.25 µg/mL, the “Interpretation (of FICI)” value (E. cloacae CQ1941; compound + colistin) was “Additive (from 0.5 to 1.0 were additive)” and the FICI (E. cloacae CQ1941; [3]) was 0.52.
